Source: PubChem BioAssay AID1963841 (Molecular Pharmacology Branch, DTP, NCI, 2024)

Tested on: 439559-082-T-J2-PDC spheroid viability
Test: Anticancer human tumor 439559-082-T-J2-PDC patient-derived colon adenocarcinoma cell line growth inhibition [POLQ]
Details: spheroids with HUVEC and MSC; for IC50: curve of first compound; for viability, T/C: stronger effect = lower value
Outline: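 Patient-derived tumour cells were co-cultured with HUVEC and mesenchymal stem cells as multicellular spheroids at 37 °C. They were treated with POLQ inhibitors (novobiocin, ART-558, RP6685) alone or combined with other agents. Top concentrations were at or near clinical Cmax (otherwise 10 microM; SN-38 at 1 microM), decreasing in half-log steps.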
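Note: spheroids exposed to compounds for seven days before readout.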
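Throughout, for viability, T/C: 100% = DMSO vehicle control viability.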

Question: Which IC50 (second compound 0.0316 µM) does the source give for `CC(=O)O[C@H]1C(=O)[C@@]2(C)[C@H]([C@H](OC(=O)c3ccccc3)[C@]3(O)C[C@H](OC(=O)[C@H](O)[C@@H](NC(=O)c4ccccc4)c4ccccc4)C(C)=C1C3(C)C)[C@]1(OC(C)=O)CO[C@@H]1C[C@@H]2O` + COC1C(OC(N)=O)C(O)C(Oc2ccc3c(O)c(NC(=O)c4ccc(O)c(CC=C(C)C)c4)c(=O)oc3c2C)OC1(C)C here?
Answer: Its IC50 is 1050 nM.

Question: What about the IC50 (second compound 0.1 µM) of the same compound?
Answer: The IC50 was 1480 nM.

Question: What about the IC50 (second compound 0.316 µM) of the same compound?
Answer: The IC50 was 1380 nM.

Question: What about the IC50 (second compound 1 µM) of the same compound?
Answer: The IC50 was 1500 nM.

Question: What about the IC50 (second compound 3.16 µM) of the same compound?
Answer: The IC50 was 1280 nM.

Question: And the IC50 (second compound 10 µM)?
Answer: The IC50 was 1530 nM.

Question: What about the viability, T/C (second compound 0.0316 µM, first compound 0.00949 µM) of the same compound?
Answer: The viability, T/C was 87.2%.

Question: What about the viability, T/C (second compound 0.0316 µM, first compound 0.03 µM) of the same compound?
Answer: Its viability, T/C is 90.8%.

Question: And the viability, T/C (second compound 0.0316 µM, first compound 0.0949 µM)?
Answer: Its viability, T/C is 78.8%.

Question: What about the viability, T/C (second compound 0.0316 µM, first compound 0.3 µM) of the same compound?
Answer: The viability, T/C was 77%.

Question: What about the viability, T/C (second compound 0.0316 µM, first compound 0.949 µM) of the same compound?
Answer: The viability, T/C was 49.9%.

Question: And the viability, T/C (second compound 0.0316 µM, first compound 3 µM)?
Answer: The viability, T/C was 39.4%.

Question: And the viability, T/C (second compound 0.1 µM, first compound 0.00949 µM)?
Answer: Its viability, T/C is 90.8%.

Question: And the viability, T/C (second compound 0.1 µM, first compound 0.03 µM)?
Answer: The viability, T/C was 88.4%.

Question: And the viability, T/C (second compound 0.1 µM, first compound 0.0949 µM)?
Answer: The viability, T/C was 80.6%.

Question: What about the viability, T/C (second compound 0.1 µM, first compound 0.3 µM) of the same compound?
Answer: The viability, T/C was 75.3%.

Question: What about the viability, T/C (second compound 0.1 µM, first compound 0.949 µM) of the same compound?
Answer: Its viability, T/C is 57.1%.

Question: And the viability, T/C (second compound 0.1 µM, first compound 3 µM)?
Answer: Its viability, T/C is 37.4%.

Question: And the viability, T/C (second compound 0.316 µM, first compound 0.00949 µM)?
Answer: The viability, T/C was 93.5%.

Question: What about the viability, T/C (second compound 0.316 µM, first compound 0.03 µM) of the same compound?
Answer: Its viability, T/C is 89.6%.

Question: What about the viability, T/C (second compound 0.316 µM, first compound 0.0949 µM) of the same compound?
Answer: Its viability, T/C is 80.4%.

Question: What about the viability, T/C (second compound 0.316 µM, first compound 0.3 µM) of the same compound?
Answer: Its viability, T/C is 71%.

Question: What about the viability, T/C (second compound 0.316 µM, first compound 0.949 µM) of the same compound?
Answer: Its viability, T/C is 56.5%.

Question: And the viability, T/C (second compound 0.316 µM, first compound 3 µM)?
Answer: Its viability, T/C is 37.1%.

Question: What about the viability, T/C (second compound 1 µM, first compound 0.00949 µM) of the same compound?
Answer: Its viability, T/C is 90.1%.

Question: What about the viability, T/C (second compound 1 µM, first compound 0.03 µM) of the same compound?
Answer: Its viability, T/C is 87.2%.

Question: What about the viability, T/C (second compound 1 µM, first compound 0.0949 µM) of the same compound?
Answer: Its viability, T/C is 79.3%.

Question: What about the viability, T/C (second compound 1 µM, first compound 0.3 µM) of the same compound?
Answer: The viability, T/C was 73%.

Question: What about the viability, T/C (second compound 1 µM, first compound 0.949 µM) of the same compound?
Answer: Its viability, T/C is 57.8%.

Question: And the viability, T/C (second compound 1 µM, first compound 3 µM)?
Answer: Its viability, T/C is 38.5%.

Question: And the viability, T/C (second compound 3.16 µM, first compound 0.00949 µM)?
Answer: Its viability, T/C is 90.3%.

Question: And the viability, T/C (second compound 3.16 µM, first compound 0.03 µM)?
Answer: The viability, T/C was 83.3%.

Question: And the viability, T/C (second compound 3.16 µM, first compound 0.0949 µM)?
Answer: The viability, T/C was 82.3%.

Question: And the viability, T/C (second compound 3.16 µM, first compound 0.3 µM)?
Answer: The viability, T/C was 69.1%.

Question: What about the viability, T/C (second compound 3.16 µM, first compound 0.949 µM) of the same compound?
Answer: Its viability, T/C is 53.2%.

Question: What about the viability, T/C (second compound 3.16 µM, first compound 3 µM) of the same compound?
Answer: Its viability, T/C is 40.4%.

Question: And the viability, T/C (second compound 10 µM, first compound 0.00949 µM)?
Answer: Its viability, T/C is 90.8%.

Question: And the viability, T/C (second compound 10 µM, first compound 0.03 µM)?
Answer: The viability, T/C was 80.1%.

Question: What about the viability, T/C (second compound 10 µM, first compound 0.0949 µM) of the same compound?
Answer: The viability, T/C was 80.5%.

Question: And the viability, T/C (second compound 10 µM, first compound 0.3 µM)?
Answer: The viability, T/C was 74.8%.

Question: And the viability, T/C (second compound 10 µM, first compound 0.949 µM)?
Answer: The viability, T/C was 55%.

Question: What about the viability, T/C (second compound 10 µM, first compound 3 µM) of the same compound?
Answer: Its viability, T/C is 40.2%.
